Laboratory results as given in ChEMBL document CHEMBL3351673, “Synthesis and evaluation of new indole-based chalcones as potential antiinflammatory agents” (Eur J Med Chem, 2015).
In brackets after ≈: the same amount, converted by molar mass.

Experiments:
[1] = molecular target: T1, Prostaglandin G/H synthase 1 (Ovis aries, UniProt P05979); assay: Inhibition of ovine COX1 using arachidonic acid substrate incubated for 5 mins by colorimetry
T1 sequence (P05979 whole entry): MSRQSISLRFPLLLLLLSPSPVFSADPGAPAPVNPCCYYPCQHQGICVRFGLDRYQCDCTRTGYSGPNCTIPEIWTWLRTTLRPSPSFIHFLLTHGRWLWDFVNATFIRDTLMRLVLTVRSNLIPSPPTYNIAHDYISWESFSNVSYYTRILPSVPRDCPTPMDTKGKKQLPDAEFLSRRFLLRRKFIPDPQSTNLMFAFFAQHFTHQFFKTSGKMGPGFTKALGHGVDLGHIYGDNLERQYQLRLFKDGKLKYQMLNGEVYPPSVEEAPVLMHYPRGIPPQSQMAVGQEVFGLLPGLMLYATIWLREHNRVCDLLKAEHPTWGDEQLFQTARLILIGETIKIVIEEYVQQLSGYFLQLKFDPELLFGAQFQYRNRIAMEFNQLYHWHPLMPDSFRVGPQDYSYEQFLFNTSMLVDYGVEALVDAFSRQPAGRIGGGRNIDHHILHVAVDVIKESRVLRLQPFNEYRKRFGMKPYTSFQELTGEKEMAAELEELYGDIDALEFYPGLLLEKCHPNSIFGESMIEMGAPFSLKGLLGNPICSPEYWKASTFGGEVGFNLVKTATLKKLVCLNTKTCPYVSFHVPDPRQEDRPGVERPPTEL

Rattus norvegicus [2] = assay: Antiinflammatory activity in Sprague-Dawley rat model of LPS-induced sepsis assessed as MPO level at 5 mg/kg/day dosed through gastric intubation for 6 days (reference value: 4.2 +/- 1.8 […]); assay type: functional
Rattus norvegicus [3] = assay: Antiinflammatory activity in Sprague-Dawley rat model of LPS-induced sepsis assessed as ALT level at 5 mg/kg/day dosed through gastric intubation for 6 days (reference value: 70.3 +/- 7.9 U/L); assay type: functional
Rattus norvegicus [4] = assay: Antiinflammatory activity in Sprague-Dawley rat model of LPS-induced sepsis assessed as AST level at 5 mg/kg/day dosed through gastric intubation for 6 days (reference value: 148.9 +/- 41.3 U/L); assay type: functional
[5] = Cytotoxicity against mouse NIH/3T3 cells incubated for 24 hrs by CCK8 assay; assay type: cell-based; conditions: NIH3T3, 24 h
Rattus norvegicus [6] = assay: Antiinflammatory activity in Sprague-Dawley rat model of LPS-induced sepsis assessed as nitric oxide level at 5 mg/kg/day dosed through gastric intubation for 6 days by cadmium reduction method (reference value: 28.6 +/- 2.4 umol/L); assay type: functional
Rattus norvegicus [7] = assay: Antiinflammatory activity in Sprague-Dawley rat model of LPS-induced sepsis assessed as hsCRP level at 5 mg/kg/day dosed through gastric intubation for 6 days (reference value: 1.9 +/- 0.3 mg/L); assay type: functional
Rattus norvegicus [8] = assay: Antiinflammatory activity in Sprague-Dawley rat model of LPS-induced sepsis assessed as serum MDA level at 5 mg/kg/day dosed through gastric intubation for 6 days (reference value: 4.7 +/- 2.8 mg/L); assay type: functional

| Structure (SMILES) | IC50 [1] | Activity (Rattus norvegicus [2]) | Activity (Rattus norvegicus [3]) | Activity (Rattus norvegicus [4]) | IC50 [5] | Activity (Rattus norvegicus [6]) | Activity (Rattus norvegicus [7]) | Activity (Rattus norvegicus [8]) |
| --- | --- | --- | --- | --- | --- | --- | --- | --- |
| CS(=O)(=O)c1ccc(C(=O)/C=C/c2c[nH]c3ccc(Br)cc23)cc1 | > 24.7 µM |  |  |  | 17.3 µg/mL (≈ 42.8 µM) |  |  |  |
| CC(=O)Nc1ccc(C(=O)/C=C/c2cn(C)c3ccccc23)cc1 | > 31.4 µM |  |  |  | 96.6 µg/mL (≈ 303 µM) |  |  |  |
| COc1ccc2c(c1)c(CC(=O)O)c(C)n2C(=O)c1ccc(Cl)cc1 [INDOMETHACIN] |  | 0.6 U/L | 67.6 U/L | 92.5 U/L |  | 26.2 µmol/L | 1.1 mg/L | 2.7 nmol/mL |
| CS(=O)(=O)c1ccc(C(=O)/C=C/c2c[nH]c3ccc(Cl)cc23)cc1 | > 27.8 µM |  |  |  | 21 µg/mL (≈ 58.4 µM) |  |  |  |
| Cn1cc(/C=C/C(=O)c2ccc(S(C)(=O)=O)cc2)c2ccccc21 | > 29.5 µM |  |  |  | 350 µg/mL (≈ 1030 µM) |  |  |  |
| N#Cc1ccc(C(=O)/C=C/c2c[nH]c3ccc(Cl)cc23)cc1 | > 32.6 µM |  |  |  | 33.3 µg/mL (≈ 109 µM) |  |  |  |
| COc1ccc2[nH]cc(/C=C/C(=O)c3ccc(C#N)cc3)c2c1 | > 33.1 µM |  |  |  | 20 µg/mL (≈ 66.2 µM) |  |  |  |

Now from value to compound, other results behind:

| IC50 [1] | Structure (SMILES) | Activity (Rattus norvegicus [2]) | Activity (Rattus norvegicus [3]) | Activity (Rattus norvegicus [4]) | IC50 [5] | Activity (Rattus norvegicus [6]) | Activity (Rattus norvegicus [7]) | Activity (Rattus norvegicus [8]) |
| --- | --- | --- | --- | --- | --- | --- | --- | --- |
| 24.2 µM | COc1ccc2[nH]cc(/C=C/C(=O)c3ccc(S(C)(=O)=O)cc3)c2c1 | 0.6 U/L | 60.9 U/L | 93.8 U/L | 32.3 µg/mL (≈ 90.9 µM) | 25.6 µmol/L | 1 mg/L | 2.6 nmol/mL |
| 33.9 µM | Cn1cc(/C=C/C(=O)c2ccc(C#N)cc2)c2ccccc21 |  |  |  | 210 µg/mL (≈ 733 µM) |  |  |  |
| 23.1 µM | N#Cc1ccc(C(=O)/C=C/c2c[nH]c3ccc(Br)cc23)cc1 | 0.8 U/L | 62.4 U/L | 98.8 U/L | 51.6 µg/mL (≈ 147 µM) | 26.2 µmol/L | 0.6 mg/L | 2.5 nmol/mL |
